From ChEMBL document CHEMBL1149368, “1-Aminomethylbenzocycloalkanes: conformationally restricted hallucinogenic phenethylamine analogues as functionally selective 5-HT2A receptor agonists” (J Med Chem, 2006)

biological target: T1, 5-hydroxytryptamine receptor 2A (Rattus norvegicus, UniProt P14842)
T1 sequence (P14842 whole entry): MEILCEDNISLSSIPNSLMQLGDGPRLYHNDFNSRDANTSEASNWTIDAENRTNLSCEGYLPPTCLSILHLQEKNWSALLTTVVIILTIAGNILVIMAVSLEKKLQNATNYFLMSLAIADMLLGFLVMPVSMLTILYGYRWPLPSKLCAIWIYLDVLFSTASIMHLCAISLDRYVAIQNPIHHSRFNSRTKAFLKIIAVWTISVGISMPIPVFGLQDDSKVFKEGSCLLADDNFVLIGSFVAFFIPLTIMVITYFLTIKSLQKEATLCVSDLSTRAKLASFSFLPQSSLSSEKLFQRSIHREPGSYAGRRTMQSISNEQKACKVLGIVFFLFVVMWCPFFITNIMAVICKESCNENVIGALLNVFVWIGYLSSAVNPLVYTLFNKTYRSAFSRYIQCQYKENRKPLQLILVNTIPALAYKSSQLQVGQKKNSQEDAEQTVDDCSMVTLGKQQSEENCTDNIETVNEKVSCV
Description: Displacement of (+/-)-[125I]DOI from rat cloned 5HT2A receptor

Point of comparison: COc1cc(Br)c2c3c1[C@H](CN)CCC[C@@H]3CO2 (racemic), Ki 0.17 µM. Against it:
- COc1cc(Br)c2c3c1[C@@H](CN)CCC[C@@H]3CO2 (racemic) — 2.3-fold lower, 0.074 µM
- COc1cc(CCN)c(OC)cc1Br — 190-fold lower, 0.00088 µM
- COc1cc(Br)c(OC)c2c1C(CN)CC2 (racemic) — 3.6-fold lower, 0.047 µM

biological target: T1, 5-hydroxytryptamine receptor 2A; assay: Activity at rat 5HT2A receptor expressed in NIH3T3 cells assessed as stimulation of phospholipase C-mediated IP production; assay type: functional, cell-based

COc1cc(CCN)c(OC)cc1Br was tested, and the EC50 was 0.027 µM.

biological target: 5-hydroxytryptamine receptor 2A (Homo sapiens, UniProt P28223)
Sequence (P28223 whole entry): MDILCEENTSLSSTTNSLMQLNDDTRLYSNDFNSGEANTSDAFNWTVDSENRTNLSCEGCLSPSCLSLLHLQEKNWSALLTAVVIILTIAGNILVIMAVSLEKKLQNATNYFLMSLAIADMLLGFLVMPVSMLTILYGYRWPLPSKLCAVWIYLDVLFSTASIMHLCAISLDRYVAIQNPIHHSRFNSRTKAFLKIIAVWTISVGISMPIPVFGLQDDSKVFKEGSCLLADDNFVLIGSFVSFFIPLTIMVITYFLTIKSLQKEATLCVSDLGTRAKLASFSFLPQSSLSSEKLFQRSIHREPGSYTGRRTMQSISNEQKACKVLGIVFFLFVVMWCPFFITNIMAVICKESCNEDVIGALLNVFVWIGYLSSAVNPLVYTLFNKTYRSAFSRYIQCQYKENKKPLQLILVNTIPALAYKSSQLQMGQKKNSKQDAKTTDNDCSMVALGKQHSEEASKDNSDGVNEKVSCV
Description: Displacement of (+/-)-[125I]DOI from human cloned 5HT2A receptor

Point of comparison: COc1cc(Br)c2c3c1[C@@H](CN)CCC[C@@H]3CO2 (racemic), Ki 0.17 µM. Against it:
- COc1cc(Br)c2c3c1[C@H](CN)CCC[C@@H]3CO2 (racemic) — within 1.5-fold, 0.2 µM
- COc1cc(CCN)c(OC)cc1Br — 260-fold lower, 0.00066 µM
- COc1cc(Br)c(OC)c2c1C(CN)CC2 (racemic) — 3.2-fold lower, 0.053 µM
